# Reference: patent US11324706B2, “Composition for inhibiting growth of breast cancer stem cells containing phenylacetaldehyde” (JEJU NATIONAL UNIVERSITY INDUSTRY-ACADEMIC COOPERATION …, priority 2016, dated 2022)
# Key:
# MCF-7 cells = assay: Xenograft tumor model; type: in vivo, NOD-SCID (BALB/cSIc (nu/nu)) female nude mice
# Protocol: FIGS. 3A, 3B and 3C show effects of PAA on tumor growth in xenograft tumor models. 3 million cells were injected into breast fat pads of NOD-SCID female nude mice;
# The dose of used drug is 10 mg/kg. 9 weeks later, the image was captured with Odyssey® image (LICOR, Pearl image system, USA). Using an IRDye 800 CW optical probe (2DG), a high grade of tumor was used to detect breast tumors at a channel of 800 nm and was represented by pseudo-color;
# A tumor growth curve was monitored during the test period;
# Tumor volume was measured after initiation of treatment. * means p<0.05, as compared to control group. A representative image was captured at the end of 9 weeks of treatment. Results are shown as a vehicle-treated control group, a PAA-treated mouse and a Dox-treated mouse;
# 24 NOD-SCID (BALB/cSIc (nu/nu)) female nude mice in total were divided into four groups producing breast cancer cells. Six mice as a negative control group were not subjected to chemotherapy. However, the volumes of tumors of control group mice were measured every three days using the Equation of (width^2×length)/2 (FIG. 3). PAA was administered at the optimal dose of 10 to 50 mg/kg to six other nude mice via breast fat pad injection. In addition, doxorubicin (Dox) was administered daily in a low dose of 10 mg/kg to other six nude mice as a positive control group via breast fat pad injection. The last group was used as a non-tumor group without treatment.
# MDA-MB-231 cells = assay: Cell proliferation (MTS) analysis, MDA-MB-231; type: cell-based, human; details: MDA-MB-231, 48 hours after PAA treatment
# Protocol: (FIGS. 1A, B and C) show chemical structures of PAA and viability of MCF-7 and MDA-MB-231 cells depending on PAA. MCF-7 and MDA-MB-231 cells were treated with increasing concentrations of PAA for 48 hours. Anti-proliferation effects of PAA were measured by MTS analysis.
# Proliferation rates of MCF-7 and MDA-MB-231 cells were measured using a CellTiter 96® aqueous one solution cell proliferation kit. MCF-7 and MDA-MB-231 cells were cultured in the presence of PAA (0.1, 0.2, 0.5, 1 and 2 mM) on a 96-well plate for 48 hours. In accordance with the manufacturer's protocol, absorbance at 490 nm was determined using a 96-well plate reader (Dynex Revelation, Dynex Ltd., Billingshurst, UK). All data was determined by measurement of three sets.
# In order to investigate anti-proliferation effects of PAA in human breast cancer cell lines, i.e., MCF-7 and MDA-MB-231, the cancer cell lines were treated with different concentrations of PAA and then MTS analysis was conducted.
# ROSs in MDA-MB-231 cells = assay: Measurement of ROS activity (ROS-Glo H2O2 assay); type: cell-based, human
# Protocol: ROSs in cells were analyzed using a ROS-Glo™ H2O2 assay kit. PAA induced ROS production of breast cancers;
# Cancer cells were cultured on a 96-well white plate and cultured together with PAA (0.5 mM) or DMSO for 24 hours. In accordance with the manufacturer's instructions, ROS was measured using an ROS-Glo™ H2O2 detection solution (Promega, Wis., USA). 100 μl of the ROS-Glo™ H2O2 detection solution was added to a 96-well white plate containing breast cancer cells, cultured at room temperature for 20 minutes, and relative luminance was recorded using a plate reader, luminometer, GloMax® Explorer (Promega, Wis., USA).
# [1] = system: MCF-7 cell-derived mammospheres; assay: Mammosphere formation, MCF-7-derived; type: cell-based, human
# Protocol: FIGS. 4A, 4B and 4C show effects of PAA on formation of MCF-7 cell-derived mammospheres. Primary mammospheres were cultured together with PAA (0.2 and 0.5 mM) or DMSO;
# Human breast cancer cells, i.e., MCF-7 and MDA-MB-231, were commercially obtained from American Type Culture Collection (ATCC; Manassas, Va., USA). MCF-7 and MDA-MB-231 cells were cultured in Dulbecco's modified essential medium (DMEM; Hyclone, Logan, Utah, USA) containing 10% fetal bovine serum (FBS; Hyclone), 100 U/mL of penicillin, and 100 μg/mL of streptomycin (Hyclone). The MCF-7 and MDA-MB-231 cells were maintained at 37° C. in a 5% CO2-containing humidified incubator. The cells were plated at a density of 1×10^6 on a 10 cm petri dish. In order to establish primary mammospheres, single cell-suspended MCF-7 and MDA-MB-231 cells were seeded at a density (cells/well) of 3.5×10^4 to 4×10^4 and 0.5×10^4 to 1×10^4, respectively, on ultra-low attachment 6-well plates containing 2 ml complete MammoCult™ medium (StemCell Technologies, Vancouver, BC, Canada). The complete MammoCult™ medium was supplemented with 4 μg/mL of heparin, 0.48 μg/mL of hydrocortisone, 100 U/mL of penicillin and 100 μg/mL of streptomycin. The cells were cultured for 7 days in a 37° C. 5% CO2 incubator.
# At 7 days of culture, the cell culture plate was disposed on a scanner (Epson Perfection V700 PHOTO, Epson Korea, Co, Seoul, Korea) to obtain an 8 bit gray scale image of mammospheres. The image was obtained at a low resolution (300 dpi) using an NICE software program and downloaded from ftp://ftp.nist.gov/pub/physics/mLclarke/NICE. For counting, preferred numbers of rows and columns (for example, 2×3 of 6-well plate) were selected to form regions of interest (ROIs), and an oval setting of the NICE program was selected and then respective ROIs were defined by moving the shapes of provided ROIs and controlling the sizes thereof. The background signal of the image was negated using a critical algorithm and the selected image was automatically counted. Regarding the mammosphere formation analysis, formation efficiency of mammospheres (MFE, %) was determined in accordance with the number of mammospheres per well/the total number of cells plated per well×100.
# [2] = system: CD44high/CD24low cell populations of MDA-MB-231 cells; assay: Flow cytometric analysis of CD44 and CD24 expression; type: cell-based, human; details: MDA-MB-231, PAA 0.1 mM
# Protocol: For FACS analysis, 50,000 cells were obtained. Gating was based on control antibody;
# Expression of CD44 and CD24 in MDA-MB-231 cells was measured by FACS analysis. The cells were isolated and harvested using 1× trypsin/EDTA, and a million of cells were suspended, labelled with FITC-conjugated anti-human CD44 and PE-conjugated anti-human CD24 antibodies (BD Pharmingen, San Diego, Calif., USA) and cultured at 4° C. for 30 minutes. Then, the cells were washed with 1×PBS three times and analyzed by flow cytometry (Accuri C6, BD, San Diego, Calif., USA).
smiles,measurement,setting,value
"O=CCc1ccccc1 [PAA, phenylacetaldehyde]",tumor volume,MCF-7 cells; compared with Doxorubicin positive control group (10 mg/kg),less than that of Doxorubicin
same,tumor weight,MCF-7 cells; compared with control group not treated with PAA,less than control group
same,tumor volume,"MCF-7 cells; compared with control group not treated with PAA, breast fat pad injection",less than that of a control group
same,PAA concentration at which growth of the cell line was concentration-dependently inhibited,MDA-MB-231 cells,≥ 100 μm
same,ROS activity,ROSs in MDA-MB-231 cells,induced
same,size of mammospheres,"[1]; MCF-7-derived, 7 days",reduced
same,formation of primary mammospheres derived from MCF-7 cells,[1]; volatile materials exposed to MCF-7 (FIG. 5B),potently inhibited
same,subpopulation expressing CD44high/CD24low in breast cancer cells,[2],reduced
